In one test the target is T1, Acetyl-cholinesterase (Electrophorus electricus, UniProt O42275).
T1 construct: Acetyl-cholinesterase was from electric eel; purchased Sigma-Aldrich; host or cells: electric eel (natural source)
Nature of the test: biochemical. The format is biochemical. From the text: (§1) HPLC-grade methanol and acetonitrile were purchased from Shanghai, China (Sinopharm Chemical Reagent Co., Ltd., Shanghai, China). Acetyl-cholinesterase was from electric eel, butyryl-cholinesterase was from equine serum, and acetylthiocholine iodide was purchased from Sigma-Aldrich (Sigma-Aldrich company, St. Louis, MO, USA). […] AB-8 macroporous resin was purchased from Yuanye (Yuanye Biochemical Technology Co., Ltd., Shanghai, China).
(§2) The Ellman method was used to determine the inhibitory activity of acetyl-cholinesterase and butyryl-cholinesterase of each monomer compound. Briefly, 150 µL of PBS buffer solution (pH = 7.4), 10 µL of the tested compound solution, and 20 µL of acetyl-cholinesterase or butyryl-cholinesterase solution (concentration of 0.2 U/mL) were transferred to a 96-well plate and placed in a gas bath constant temperature oscillator at 37 °C for 15 min. […] Then, 10 µL PBS was added to the blank group to exclude other irrelevant factors from affecting the experimental results and ensure the rationality of the experimental results. […] Inhibition Rate = (Anegative control group − Atest group/Anegative control group − Ablank group) × 100%(2)

A further test has as its target T2, Butyryl-cholinesterase (Equus caballus, UniProt P81908).
T2 construct: butyryl-cholinesterase was from equine serum; purchased Sigma-Aldrich; host or cells: equine serum
The experiment in a line: biochemical. The format is biochemical. To be noted: for IC50: Ellman method, 37 °C, PBS pH 7.4, 412 nm, read-out: IC50 Value Butyrylcholinesterase.
Description: as §1, §2

[1] abbreviates: Ellman method, 37 °C, PBS pH 7.4, 412 nm, read-out: IC50 Value Acetylcholinesterase.

Results on 5 compounds are retold here after publication PMC8949104, “Bioactivity-Guided Separation of Anti-Cholinesterase Alkaloids from Uncaria rhynchophlly (Miq.) Miq. Ex Havil Based on HSCCC Coupled with Molecular Docking” (Molecules, 2022).

The IC50 is the point on the concentration scale where inhibition reaches its midpoint.

Where two headings read alike, the source gives them in different places.

T2 sequence (P81908 whole entry): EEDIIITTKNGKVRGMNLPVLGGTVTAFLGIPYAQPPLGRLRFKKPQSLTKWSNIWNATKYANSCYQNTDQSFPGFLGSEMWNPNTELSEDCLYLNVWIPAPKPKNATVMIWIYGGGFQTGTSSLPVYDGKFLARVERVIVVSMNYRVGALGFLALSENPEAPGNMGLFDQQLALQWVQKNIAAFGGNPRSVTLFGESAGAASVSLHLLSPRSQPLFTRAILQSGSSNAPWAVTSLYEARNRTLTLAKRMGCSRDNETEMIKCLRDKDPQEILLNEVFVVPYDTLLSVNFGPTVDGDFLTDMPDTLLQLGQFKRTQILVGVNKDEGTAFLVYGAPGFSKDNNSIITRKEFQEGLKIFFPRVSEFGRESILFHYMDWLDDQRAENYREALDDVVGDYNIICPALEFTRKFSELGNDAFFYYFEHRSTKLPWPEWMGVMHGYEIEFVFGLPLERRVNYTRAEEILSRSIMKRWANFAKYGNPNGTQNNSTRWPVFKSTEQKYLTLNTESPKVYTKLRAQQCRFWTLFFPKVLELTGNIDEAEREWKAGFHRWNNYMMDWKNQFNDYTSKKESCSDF
T1 sequence (O42275 24-633): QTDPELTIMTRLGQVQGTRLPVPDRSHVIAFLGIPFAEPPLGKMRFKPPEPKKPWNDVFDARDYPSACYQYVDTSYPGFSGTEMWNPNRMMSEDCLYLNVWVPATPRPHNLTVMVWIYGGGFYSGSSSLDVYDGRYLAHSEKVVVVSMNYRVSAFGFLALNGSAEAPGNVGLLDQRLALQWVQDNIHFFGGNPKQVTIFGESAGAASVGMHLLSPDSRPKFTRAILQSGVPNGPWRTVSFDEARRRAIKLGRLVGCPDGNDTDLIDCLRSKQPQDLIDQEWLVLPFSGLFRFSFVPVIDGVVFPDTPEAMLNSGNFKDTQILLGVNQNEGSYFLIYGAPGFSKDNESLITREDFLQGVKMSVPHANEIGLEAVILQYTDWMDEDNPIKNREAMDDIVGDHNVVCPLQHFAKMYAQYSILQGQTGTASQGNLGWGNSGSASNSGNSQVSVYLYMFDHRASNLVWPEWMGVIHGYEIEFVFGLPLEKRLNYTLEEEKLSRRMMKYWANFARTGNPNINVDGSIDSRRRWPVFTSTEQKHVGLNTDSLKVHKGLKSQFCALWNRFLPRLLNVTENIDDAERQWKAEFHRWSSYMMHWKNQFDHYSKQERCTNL

For `C=C[C@H]1C(O[C@H]2O[C@H](CO)[C@@H](O)[C@H](O)[C@H]2O)OC=C2C(=O)N3CC[C@]4(C(=O)Nc5ccccc54)[C@H]3C[C@H]21` (stereo partly drawn) [Compound 1, 7-epi-javaniside], the IC50 at Acetyl-cholinesterase (setting [1]) stood at 2.85 ± 0.5 µM; on Butyryl-cholinesterase, 2.13 ± 0.1 µM. Also, on Acetyl-cholinesterase (qualitative statement), the “acetyl-cholinesterase inhibitory activity (in words)” value is “close to that of the positive drug”. Further, on Butyryl-cholinesterase (qualitative statement), the “butyryl-cholinesterase inhibitory activity (in words)” value is recorded as “close to that of the positive drug”.

For `C=CC1C2C[C@H]3c4[nH]c5ccccc5c4CCN3C(=O)C2=CO[C@H]1O[C@H]1O[C@H](CO)[C@@H](O)[C@H](O)[C@H]1O` (stereo partly drawn) [Compound 2, vincosamide], the half-maximal inhibitory concentration (IC50) is 12.4 ± 0.86 µM against Acetyl-cholinesterase and 23.18 ± 0.14 µM at Butyryl-cholinesterase.

Take `C=CC1C2C[C@@H]3c4[nH]c5ccccc5c4CCN3C(=O)C2=CO[C@H]1O[C@H]1O[C@H](CO)[C@@H](O)[C@H](O)[C@H]1O` (stereo partly drawn) [Compound 3, strictosamide]: the IC50 on Acetyl-cholinesterase is 46.6 ± 0.58 µM; on Butyryl-cholinesterase, 6.47 ± 0.72 µM.

As for `COC(=O)C1=COC(OC2OC(CO)C(O)C(O)C2O)C2C3CN4CCc5c([nH]c6ccccc56)C4(CC12)O3` (stereo not drawn) [Compound 4, cadambine], the IC50 against Acetyl-cholinesterase is 26.1 ± 2.12 µM; on Butyryl-cholinesterase, 30.7 ± 0.69 µM.

`COC(=O)C1=COC(OC2OC(CO)C(O)C(O)C2O)C2C(O)CN3CCc4c([nH]c5ccccc45)C3CC12` (stereo not drawn) [Compound 5, 3α-dihydrocadambine]: the IC50 on Acetyl-cholinesterase (setting [1]) was determined as 37 ± 1.57 µM; at Butyryl-cholinesterase, 33.3 ± 0.51 µM.
